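48-hour exposure; five concentrations; linearly interpolated endpoints. GI50: concentration for 50% inhibition of growth. The concentration for full growth arrest is given as TGI.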
What was measured:
Test in all cases: inhibition of tumour cell growth, NCI panel, 48 h
UACC-257 melanoma = test system: UACC-257 melanoma
786-0 renal = test system: 786-0 renal
SK-MEL-5 melanoma = test system: SK-MEL-5 melanoma
HCT-116 colon = test system: HCT-116 colon
KM12 colon = test system: KM12 colon
SF-539 CNS = test system: SF-539 CNS
SK-OV-3 ovarian = test system: SK-OV-3 ovarian
OVCAR-4 ovarian = test system: OVCAR-4 ovarian
HOP-62 NSCLC = test system: HOP-62 NSCLC
RPMI-8226 leukemia = test system: RPMI-8226 leukemia

| Compound | GI50 (UACC-257 melanoma) [µM] | TGI (UACC-257 melanoma) [µM] | GI50 (786-0 renal) [µM] | TGI (786-0 renal) [µM] | GI50 (SK-MEL-5 melanoma) [µM] | TGI (SK-MEL-5 melanoma) [µM] | GI50 (HCT-116 colon) [µM] | TGI (HCT-116 colon) [µM] | GI50 (KM12 colon) [µM] | TGI (KM12 colon) [µM] | GI50 (SF-539 CNS) [µM] | TGI (SF-539 CNS) [µM] | GI50 (SK-OV-3 ovarian) [µM] | TGI (SK-OV-3 ovarian) [µM] | GI50 (OVCAR-4 ovarian) [µM] | TGI (OVCAR-4 ovarian) [µM] | GI50 (HOP-62 NSCLC) [µM] | TGI (HOP-62 NSCLC) [µM] | GI50 (RPMI-8226 leukemia) [µM] | TGI (RPMI-8226 leukemia) [µM] |
| --- | --- | --- | --- | --- | --- | --- | --- | --- | --- | --- | --- | --- | --- | --- | --- | --- | --- | --- | --- | --- |
| COc1cc(C2CC(c3ccc4c(c3)OCO4)=NN2C=O)cc(OC)c1OC (stereo not given) | > 20.3 | > 100 | 5.26 | > 100 | 2.39 | 8.11 | 1.52 | > 100 | 1.17 | > 100 | 2.06 | 13 | 2.25 | > 100 | 6.86 | > 100 | 2.81 | > 100 | 5.17 | > 64.6 |
| O=C1[C@H]2ON(c3ccccc3)C(c3ccccc3Cl)[C@H]2C(=O)N1c1ccc(Cc2ccc(N3C(=O)[C@@H]4ON(c5ccccc5)C(c5ccccc5Cl)[C@@H]4C3=O)cc2)cc1 (stereo not given in full) |  | > 100 |  | > 100 |  | > 100 |  | > 100 |  | > 100 |  | > 100 |  | > 100 |  | > 100 |  | > 100 |  | > 100 |
| Cc1cc(N(CCCl)CCCl)ccc1C=Nc1ccc(-c2csc(Cc3ccccc3)n2)cc1 | 3.36 | 29.3 | 5.86 | 49.1 | 7.68 | 21.2 | 13.6 | 40.3 | 15.8 | 55.6 | 5.41 | 29.4 | 11.8 | 50.1 | 8.01 | > 100 | 5.72 | > 83 | 8.26 | 44 |
| CCCC(=O)OC1C(C(O)CO)OC2OC(C)(C)OC21 (stereo not given) |  | > 100 |  | > 100 |  | > 100 |  | > 100 |  | > 100 |  | > 100 |  | > 100 |  | > 100 |  | > 100 |  | > 100 |
| O=C(NCCCCCCNC(=O)n1cc(F)c(=O)[nH]c1=O)NCCCOCCOCCOCCOCCOCCOCCOCCOCCOCCOCCOCCOCCOCCOCCOCCOCCOCCOCCOCCOCCOCCCNC(=O)C(O)C(O)C(O)C(O)CO (stereo not given) |  | > 100 |  | > 100 |  | > 100 |  | > 100 |  | > 100 |  | 43.7 |  | > 100 |  | > 100 |  | > 100 |  | > 100 |
| CC#C[C@]1(O)CC[C@H]2[C@@H]3CCC4=CC(=O)CCC4=C3[C@@H](c3ccc4c(c3)OCO4)C[C@@]21C | 119 | 410 | 35.8 | 324 | 66.1 | 199 | 31.2 | 126 | 112 | 299 | 89.2 | 274 | 186 | 777 | 61.1 | 989 | 120 | 400 | 49.4 | 331 |
| Cc1[nH]ccc2c1[nH]c1cc(=O)ccc12 |  | > 100 |  | > 100 |  | > 100 |  | > 100 |  | > 100 |  | > 100 |  | > 100 |  | > 100 |  | > 100 |  | > 100 |
| O=C(O)/C=C\C(=O)N1C/C(=C\c2ccccc2Cl)C(=O)/C(=C/c2ccccc2Cl)C1 | 6.44 | 20.4 | 2.18 | 4.06 | 3.03 | 12 | 1.6 | 3.45 | 1.6 | 3.12 | 3.01 | 8.24 | 4.74 | 15.2 | 3.37 | 13.6 | 3.4 | 8.26 | 1.35 | 10.3 |
| COc1cccc2c1c(C(=O)C(=O)Nc1cc(C)no1)cn2Cc1ccc(F)cc1 | 9.25 | 71.8 | 19.2 | > 100 | 3.08 | 25.6 | 5.58 | > 64.1 | 2.19 | > 44.4 | 7.52 | > 80 | 31.4 | > 100 | 24 | > 100 | > 35.9 | > 100 | 2.11 | > 24.2 |
| COc1ccc(-c2nn3c(-c4cc(F)c(Cl)cc4Cl)nnc3s2)cc1 | 32.2 | > 100 | 33.4 | > 100 | 17.6 | 44.7 | 20.8 | 52.9 | 26.3 | > 100 | 20.8 | 44.4 | 21.4 | > 100 | 23.5 | 87.4 | 26.2 | > 100 | 19.6 | 52.7 |
| O=C1/C(=C\c2c[nH]c3ccccc23)c2ccccc2N1c1c(Cl)cccc1Cl | 2.34 | 4.61 | 1.74 | 3.21 | 1.55 | 2.92 | 1.3 | 2.56 | 1.84 | 3.69 | 1.59 | 3.01 | 2.13 | 5.27 | 2.33 | 6.44 | 1.38 | 2.75 | 1.89 | 4.68 |
| COc1cc2c(c(OC)c1)C1c3ccccc3NC(=O)N1CC2 (stereo not given) | 51 | > 100 | 4.63 | > 100 | 4.01 | 15.3 | 3.69 | > 100 | 4.95 | > 100 | 1.7 | 7.26 | 3.67 | > 100 | 8.24 | > 100 | 3.28 | > 100 | 5.39 | 68.2 |
| O=C(N/C(=C\c1ccc2c(c1)OCO2)c1nc2ccccc2[nH]1)c1ccccc1 |  | 35.8 |  | > 100 |  | 29.9 |  | > 89 |  | > 100 |  | 82.7 |  | > 100 |  | 69.4 |  | > 73.4 |  | 83.9 |
| CC1=Nc2ccccc2S/C1=C(/C)NNC(=O)C(N)=O |  | > 100 |  | > 100 |  | > 100 |  | > 100 |  | > 100 |  | > 100 |  | > 100 |  | > 100 |  | > 100 |  | > 100 |
